Experiments:
EGFR in HCT-8 cells = assay: EGFR transactivation, Western blot with phospho-tyrosine specific antibody; format: cell-based, human; conditions: 10 μM
Text: FIG. 24: Western blot showing the ability of LPA to transactivate EGFR in HCT-8 cells, as assessed using a phospho-tyrosine specific antibody.
The ability of LPA to phosphorylate ERK1/2 has been extensively described in the literature, and three principal mechanisms have been described for this effect. […] The first of these pathways involves β-arrestin recruitment and activation of Src, which then transactivates the RTK. The second of these pathways involves She which is recruited by LPA and can itself activate membrane-bound metalloproteases (e.g. ADAM10) which causes release of heparin-bound epidermal growth factor (EGF) which can then activate EGF receptor. EGF and activation of the EGF receptor is a well known proliferative pathway for many cell lines. The possibility of LPA causing transactivation of EGFR in HCT-8 cells was tested as the EGFR signaling pathway is known to be present and active in these cells. […] From the LPA-based literature, the potential for LPA to also transactivate other RTKs, such as PDGFR for example, in these cells is a very likely possibility.

OSGPR114 = molecular target: T1, OSGPR114 (Homo sapiens, UniProt Q9H1C0); assay: FLIPR intracellular calcium assay, CHO-OSGPR114 cells; format: cell-based; conditions: FLIPR, read-out: EC50, intracellular calcium response
T1 construct: expressed in transfected cells; host or cells: engineered yeast (GPA1 replaced by G-alpha chimeras, STE3 deleted; Fus1p-LacZ reporters)
Experimental: (§1) For example, in one method employed herein, CHO and CHO-114 cells were seeded at a concentration of 50K cells/well in […] growth media in clear, flat-bottom 96-well black assay plates and incubated overnight at 37 C. The growth media is aspirated from the cells and a dye solution ([…]) added to each well. The dye solution consists of 2 mM probenecid, 2 mM HBSS, […] in a growth media minus antibiotics solution. The cells are loaded with the dye for 1 h at 37 C before aspiration and rinsing with wash buffer (20 mM HBSS+2 mM Probenecid). Compound plates are then prepared with 4× compound/control. 150 ul of wash buffer is added to each well. Once the FLIPR is fully calibrated, compound is added to the plate and the release of calcium measured using 0.4 exposure length and a laser set at 0.3W.

SHP-2 in HCT-8 cells = assay: SHP-2 activation, phospho-specific antibody; format: cell-based, human; conditions: 10 uM
Experimental: FIGS. 25A-C. LPA (10 uM) activation of Shc (A), paxillin (B) and SHP-2(C) in HCT-8 cell lysates. Phospho-specific antibodies were used to detect the activated proteins.
Many of the growth and survival signaling pathways of cancer cells have been identified. […] The protein She is an adaptor protein and the protein phosphatase SHP-2 are known to link the activation of multiple growth factor receptors to their downstream signaling pathways in cancer cells (For review see Yart et al. (2003) Current Cancer Drug Targets 3:177-192). These proteins are involved in mitogenic signaling by linking growth stimuli to the Ras-mitogen-activated protein kinase cascade and the PI3K survival pathway. […] Additionally, paxillin is a scaffold molecule intricately involved in the regulation of focal adhesions in cancer cells. It is therefore involved in the regulation of cell spreading and motility and is controlled by a multitude of signaling moieties including growth factors, and their downstream signaling molecules. Paxillin recruits these signaling components into specific cell compartments known as focal adhesions (For review, see Schaller (2001) Oncogene 20:6459-72). […] By treating HCT-8 cells with LPA (10 uM), the effect of LPA on the phosphorylation of paxillin was measured using activation state specific antibodies ([…]).

[1] = system: Akt in CHO cell line stably transfected with OSGPR114; assay: Akt phosphorylation, phospho-specific Akt antibody; format: cell-based; conditions: 10 uM, 3 minutes
Experimental: FIG. 26. Effect of LPA (10 μM), EGF (1 μM) and DMSO on levels of phospho-Akt as a in a CHO-K1 cell line stably transfected with OSGPR114.
The protein Akt is a well characterized survival pathway for many cancer cells and is a pathway that can be induced by multiple cell growth factors (For review, see Marte and Downward (1997) Trends Biochem. Sci. 22:355-358). […] The cells used for this experiment were a CHO cell line stably transfected with OSGPR114. The cells were treated with vehicle, LPA (10 uM) or EGF (1 uM) for 3 minutes.

HCT-8 cells [2] = assay: LPA effect on cell proliferation (Cell TiterGlo); format: cell-based, human
Experimental: (§2) The effect of LPA on cell proliferation (Cell TiterGlo assay, Promega) and induction of apoptosis (Apo-One Caspase 3/7 assay, Promega) was measured in the presence and absence of serum. Cell-titer Glo is an assay that quantitates ATP as a measurement of the number of viable cells in a culture. The assay utilizes a luciferase-based luminescent signal. The Apo-One assay utilizes a profluorescent caspase 3/7 consensus substrate to measure the activation of caspase in the sample. The experiments were conducted in serum-free media as it is known that serum contains high concentrations of LPA (of the order of 10-30 uM). Briefly, cells were plated in 96-well plates at a density of 20,000 cells/well. After 24 h the serum-containing media was removed from the cells and replaced with either serum-containing or serum-free media. After 24 h LPA, at concentrations from 1-100 μM was added to the cells. 24 h later the induction of apoptosis and the level of cellular proliferation was measured using the Cell titer-glo or Caspase 3/7 Apo-One assay kits commercially available from Promega.

CHO cells = assay: FLIPR intracellular calcium assay, CHO cells; format: cell-based, hamster
Experimental: as §1

HCT-8 cells [3] = assay: LPA effect on apoptosis (Apo-One Caspase 3/7); format: cell-based, human
Experimental: as §2

[4] = serum free conditions, LPA 1-100 μM, 24 h

T1 sequence (Q9H1C0 whole entry): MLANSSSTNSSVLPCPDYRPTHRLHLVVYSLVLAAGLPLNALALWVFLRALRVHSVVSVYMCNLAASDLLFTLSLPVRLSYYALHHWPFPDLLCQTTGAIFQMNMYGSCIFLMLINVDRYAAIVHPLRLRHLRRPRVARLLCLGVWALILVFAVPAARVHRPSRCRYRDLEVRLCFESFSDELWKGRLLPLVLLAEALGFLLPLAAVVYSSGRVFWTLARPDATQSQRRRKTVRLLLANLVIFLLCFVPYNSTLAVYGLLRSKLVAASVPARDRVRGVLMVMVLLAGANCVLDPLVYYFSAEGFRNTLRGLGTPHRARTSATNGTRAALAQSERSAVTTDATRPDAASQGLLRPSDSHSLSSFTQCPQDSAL

- EC50 (OSGPR114): 59 nM
Substance: lysophosphatidic acid [LPA]
- EGFR transactivation (EGFR in HCT-8 cells): capable of transactivating EGFR
- phosphorylation of SHP-2 (SHP-2 in HCT-8 cells): induced the phosphorylation
- phosphorylation of Akt [1]: stimulate phosphorylation of Akt
- cell growth / proliferation (HCT-8 cells [2]; presence of 10% FCS): no statistically significant effects
- cell growth / proliferation (HCT-8 cells [2]; [4]): induced growth of the cells in a concentration dependent manner
- change in intracellular calcium concentration (CHO cells): no significant change
- apoptosis (HCT-8 cells [3]; presence of 10% FCS): no statistically significant effects
- apoptosis induced through serum starving (HCT-8 cells [3]; [4]): reversed apoptosis

Source: patent publication US7879566B2, “Methods for the identification of modulators of OSGPR114 or OSGPR78 activity, and their use in the treatment of disease” (OSI Pharmaceuticals, Inc., priority 2003, dated 2011)
